Assays:
[1] = test system: KM12; test: cells; conditions: Homo sapiens
Description: Anticancer activity against human KM12 cells

[2] = physchem
Description: Dissociation constant, pKa of the compound by UV-visible spectroscopy

[3] = in vivo; conditions: mouse, cancer cell lines
Description: Toxicity in cancer cells containing hollow fiber implanted mouse

[4] = test system: M14; test: cells; conditions: Homo sapiens
Description: Anticancer activity against human M14 cells

[5] = test system: DU-145; test: cells; conditions: Homo sapiens
Description: Anticancer activity against human DU145 cells

[6] = test system: Nucleic Acid; conditions: Homo sapiens
Description: Binding affinity to human G-quadruplex DNA assessed as change in melting temperature by FRET-melting assay

[7] = test system: NCI-H522; test: cells; conditions: Homo sapiens
Description: Anticancer activity against human NCI-H522 cells

[8] = test system: RXF 393; test: cells; conditions: Homo sapiens
Description: Anticancer activity against human RXF393 cells

[9] = test system: CAKI-1; test: cells; conditions: Homo sapiens
Description: Anticancer activity against human Caki1 cells

[10] = test system: Vero; test: cells; conditions: Chlorocebus sabaeus, 48 h
Description: Cytotoxicity against african green monkey Vero cells after 48 hrs by MTT assay

[11] = test system: UACC-62; test: cells; conditions: Homo sapiens
Description: Anticancer activity against human UACC62 cells

[12] = test system: CCRF-CEM; test: cells; conditions: Homo sapiens
Description: Anticancer activity against human CCRF-CEM cells

[13] = test system: OVCAR-4; test: cells; conditions: Homo sapiens
Description: Anticancer activity against human OVCAR4 cells

[14] = test system: Malme-3M; test: cells; conditions: Homo sapiens
Description: Anticancer activity against human MALME-3M cells

[15] = test system: MDA-MB-468; test: cells; conditions: Homo sapiens
Description: Anticancer activity against human MDA-MB-468 cells

[16] = cells; conditions: Homo sapiens, Hs-578T
Description: Anticancer activity against human Hs 578T cells

[17] = test system: SK-MEL-5; test: cells; conditions: Homo sapiens
Description: Anticancer activity against human SK-MEL-5 cells

[18] = test system: ACHN; test: cells; conditions: Homo sapiens
Description: Anticancer activity against human ACHN cells

[19] = test system: MOLT-4; test: cells; conditions: Homo sapiens
Description: Anticancer activity against human MOLT4 cells

[20] = test system: NCI-H322M; test: cells; conditions: Homo sapiens
Description: Anticancer activity against human NCI-H322M cells

[21] = test system: 786-0; test: cells; conditions: Homo sapiens
Description: Anticancer activity against human 786-0 cells

[22] = test system: COLO 205; test: cells; conditions: Homo sapiens
Description: Anticancer activity against human COLO205 cells

[23] = test system: UACC-257; test: cells; conditions: Homo sapiens
Description: Anticancer activity against human UACC257 cells

[24] = test system: SK-OV-3; test: cells; conditions: Homo sapiens
Description: Anticancer activity against human SKOV3 cells

[25] = test system: SN12C; test: cells; conditions: Homo sapiens
Description: Anticancer activity against human SN12C cells

[26] = test system: SW-620; test: cells; conditions: Homo sapiens
Description: Anticancer activity against human SW620 cells

[27] = test system: TK-10; test: cells; conditions: Homo sapiens
Description: Anticancer activity against human TK10 cells

[28] = test system: OVCAR-3; test: cells; conditions: Homo sapiens
Description: Anticancer activity against human OVCAR-3 cells

[29] = test system: PC-3; test: cells; conditions: Homo sapiens
Description: Anticancer activity against human PC3 cells

[30] = test system: SR; test: cells; conditions: Homo sapiens
Description: Anticancer activity against human SR cells

[31] = test system: BT-549; test: cells; conditions: Homo sapiens
Description: Anticancer activity against human BT549 cells

[32] = test system: HL-60(TB); test: cells; conditions: Homo sapiens
Description: Anticancer activity against human HL-60(TB) cells

[33] = test system: SNB-19; test: cells; conditions: Homo sapiens
Description: Anticancer activity against human SNB19 cells

[34] = test system: SF-539; test: cells; conditions: Homo sapiens
Description: Anticancer activity against human SF539 cells

[35] = test system: EKVX; test: cells; conditions: Homo sapiens
Description: Anticancer activity against human EKVX cells

C[n+]1c2ccccc2c(Nc2ccc(N3CCCCC3)cc2)c2[nH]c3ccccc3c21.[Cl-]
GI50 ([1]; KM12, read-out: pGI50 (converted)): 372 nM | CC50 ([1]; KM12, read-out: pLC50 (converted)): 5130 nM | TGI ([1]; KM12, read-out: pTGI): 1480 nM | pKa [2]: 10 | MTD [3]: 160 mg/kg | GI50 ([4]; M14, read-out: pGI50 (converted)): 389 nM | CC50 ([4]; M14, read-out: pLC50 (converted)): 4070 nM | TGI ([4]; M14, read-out: pTGI): 1450 nM | GI50 ([5]; DU-145, read-out: pGI50 (converted)): 398 nM | CC50 ([5]; DU-145, read-out: pLC50 (converted)): 4170 nM | TGI ([5]; DU-145, read-out: pTGI): 1480 nM | ΔTm [6]: 4.2 °C | GI50 ([7]; NCI-H522, read-out: pGI50 (converted)): 741 nM | TGI ([7]; NCI-H522, read-out: pTGI): 2140 nM | GI50 ([8]; RXF 393, read-out: pGI50 (converted)): 174 nM | CC50 ([8]; RXF 393, read-out: pLC50 (converted)): 692 nM | TGI ([8]; RXF 393, read-out: pTGI): 347 nM | GI50 ([9]; CAKI-1, read-out: pGI50 (converted)): 234 nM | CC50 ([9]; CAKI-1, read-out: pLC50 (converted)): 3160 nM | TGI ([9]; CAKI-1, read-out: pTGI): 794 nM | IC50 [10]: 4830 nM | GI50 ([11]; UACC-62, read-out: pGI50 (converted)): 427 nM | TGI ([11]; UACC-62, read-out: pTGI): 1910 nM | GI50 ([12]; read-out: pGI50 (converted)): 162 nM | CC50 ([12]; read-out: pLC50 (converted)): 2000 nM | TGI ([12]; read-out: pTGI): 427 nM | GI50 ([13]; OVCAR-4, read-out: pGI50 (converted)): 363 nM | CC50 ([13]; OVCAR-4, read-out: pLC50 (converted)): 3980 nM | TGI ([13]; OVCAR-4, read-out: pTGI): 1350 nM | GI50 ([14]; read-out: pGI50 (converted)): 417 nM | CC50 ([14]; read-out: pLC50 (converted)): 4570 nM | TGI ([14]; read-out: pTGI): 1700 nM | GI50 ([15]; MDA-MB-468, read-out: pGI50 (converted)): 135 nM | CC50 ([15]; MDA-MB-468, read-out: pLC50 (converted)): 891 nM | TGI ([15]; MDA-MB-468, read-out: pTGI): 347 nM | GI50 ([16]; read-out: pGI50 (converted)): 275 nM | TGI ([16]; read-out: pTGI): 1000 nM | GI50 ([17]; SK-MEL-5, read-out: pGI50 (converted)): 229 nM | CC50 ([17]; SK-MEL-5, read-out: pLC50 (converted)): 3470 nM | TGI ([17]; SK-MEL-5, read-out: pTGI): 1200 nM | GI50 ([18]; read-out: pGI50 (converted)): 288 nM | CC50 ([18]; read-out: pLC50 (converted)): 3890 nM | TGI ([18]; read-out: pTGI): 1450 nM | GI50 ([19]; MOLT-4, read-out: pGI50 (converted)): 70.8 nM | CC50 ([19]; MOLT-4, read-out: pLC50 (converted)): > 100000 nM | TGI ([19]; MOLT-4, read-out: pTGI): 8710 nM | GI50 ([20]; read-out: pGI50 (converted)): 1020 nM | CC50 ([20]; read-out: pLC50 (converted)): 5500 nM | TGI ([20]; read-out: pTGI): 2400 nM | GI50 ([21]; 786-0, read-out: pGI50 (converted)): 457 nM | CC50 ([21]; 786-0, read-out: pLC50 (converted)): 5500 nM | TGI ([21]; 786-0, read-out: pTGI): 1700 nM | GI50 ([22]; COLO 205, read-out: pGI50 (converted)): 141 nM | CC50 ([22]; COLO 205, read-out: pLC50 (converted)): 851 nM | TGI ([22]; COLO 205, read-out: pTGI): 347 nM | GI50 ([23]; UACC-257, read-out: pGI50 (converted)): 1230 nM | TGI ([23]; UACC-257, read-out: pTGI): 2690 nM | GI50 ([24]; SK-OV-3, read-out: pGI50 (converted)): 513 nM | CC50 ([24]; SK-OV-3, read-out: pLC50 (converted)): 4270 nM | TGI ([24]; SK-OV-3, read-out: pTGI): 1860 nM | GI50 ([25]; read-out: pGI50 (converted)): 204 nM | CC50 ([25]; read-out: pLC50 (converted)): 6760 nM | TGI ([25]; read-out: pTGI): 1410 nM | GI50 ([26]; SW-620, read-out: pGI50 (converted)): 105 nM | TGI ([26]; SW-620, read-out: pTGI): 372 nM | GI50 ([27]; TK-10, read-out: pGI50 (converted)): 1000 nM | CC50 ([27]; TK-10, read-out: pLC50 (converted)): 5620 nM | TGI ([27]; TK-10, read-out: pTGI): 2400 nM | GI50 ([28]; OVCAR-3, read-out: pGI50 (converted)): 224 nM | CC50 ([28]; OVCAR-3, read-out: pLC50 (converted)): 933 nM | TGI ([28]; OVCAR-3, read-out: pTGI): 457 nM | GI50 ([29]; PC-3, read-out: pGI50 (converted)): 195 nM | CC50 ([29]; PC-3, read-out: pLC50 (converted)): 3240 nM | TGI ([29]; PC-3, read-out: pTGI): 631 nM | GI50 ([30]; read-out: pGI50 (converted)): 3800 nM | CC50 ([30]; read-out: pLC50 (converted)): > 100000 nM | TGI ([30]; read-out: pTGI): > 100000 nM | GI50 ([31]; BT-549, read-out: pGI50 (converted)): 1290 nM | CC50 ([31]; BT-549, read-out: pLC50 (converted)): 5250 nM | TGI ([31]; BT-549, read-out: pTGI): 2630 nM | GI50 ([32]; HL-60, read-out: pGI50 (converted)): 617 nM | CC50 ([32]; HL-60, read-out: pLC50 (converted)): > 100000 nM | GI50 ([33]; SNB-19, read-out: pGI50 (converted)): 427 nM | CC50 ([33]; SNB-19, read-out: pLC50 (converted)): 4370 nM | TGI ([33]; SNB-19, read-out: pTGI): 1780 nM | GI50 ([34]; SF-539, read-out: pGI50 (converted)): 646 nM | CC50 ([34]; SF-539, read-out: pLC50 (converted)): 4470 nM | TGI ([34]; SF-539, read-out: pTGI): 1950 nM | GI50 ([35]; read-out: pGI50 (converted)): 427 nM | CC50 ([35]; read-out: pLC50 (converted)): 4680 nM | TGI ([35]; read-out: pTGI): 1860 nM
